Data reported in patent publication US5470873A, “Diabetes prevention and treatment using gamma-pyrones” (University Technologies International, Inc., priority 1994, dated 1995).

Test: Pancreatic insulin content (immunoreactive insulin, radioimmunoassay) in NOD mice
Assay type: in vivo
Details: NOD mice
Experimental: Insulin was extracted from the pancreas of non-obese diabetic (NOD) mouse by known methods ^33,34. Briefly, deep frozen pancreatic tissue (50% of each pancreas) was placed into phosphate buffered saline (PBS) and then extraction solution A (380 ml absolute alcohol, 20 ml H2 O, 8 ml concentrated HCl and some drops of alcoholic phenol red) was added. This mixture was homogenized with polytron type PT 10-20-[…] in glass tubes (15×125 mm) for 30 seconds in position 5. The homogenized material in the tubes was incubated at 4° C. for 10 hours. At the end of the incubation period, the homogenized material was centrifuged at 800 g for 5 minutes for clarification. The supernatant was saved. The pellet was re-extracted with 1 ml of extraction solution B (356 ml absolute alcohol, 124 ml H2 O and 7.5 ml HCl). The pellet in extraction solution B was incubated for 4 hours at 4° C. and then homogenized with a polytron as described above. The homogenized material was centrifuged at 800 g for 5 minutes. The supernatant was pooled with the supernatant from the first extraction. The pooled supernatant was neutralized with concentrated NH40 H (about 10 μl ) until the phenol red turned to purple. The neutralized supernatant was precipitated at 4° C. and then centrifuged at 800 g for 5 min. The supernatant, which contains insulin, was used for the measurement of insulin by radioimmunoassay. The concentration of immunoreactive insulin (IRI) in the pancreas from DPD-treated and untreated NOD mice was measured by radioimmunoassay techniques ^42-44 using mouse insulin as a standard. Briefly, the extracted samples from NOD mice were mixed with […], and anti-insulin antibody. The mixed materials were incubated for 2 hours at room temperature. At the end of the incubation period, anti-guinea pig IgG raised in sheep was added and the mixture was incubated for 30 minutes at room temperature. At the end of the incubation, the samples were centrifuged at 1500 g for 10 minutes. The supernatant was completely removed. The radioactivity of the pellets was measured. The percent of activity was determined by the following formula: [formula] On the basis of % activity in standards, a standard curve was constructed. The concentration of each unknown sample from maltol-treated or untreated NOD pancreas was read on the basis of the standard curve. […] The maltol-treated mice have insulin levels that are similar to the non-diabetic, untreated animals. About 75% of the maltol-treated mice have insulin levels over 80 μg/g pancreas and about 25% have insulin levels between 55-75 μg/g pancreas.

With Cc1occc(=O)c1O [DPD, maltol] the “Pancreatic insulin / protection from beta cell destruction (in words)” value was “prevents depression of pancreatic insulin levels”.
